Biological target: T1, haspin (Homo sapiens, UniProt Q8TF76)
T1 sequence (Q8TF76 1-798): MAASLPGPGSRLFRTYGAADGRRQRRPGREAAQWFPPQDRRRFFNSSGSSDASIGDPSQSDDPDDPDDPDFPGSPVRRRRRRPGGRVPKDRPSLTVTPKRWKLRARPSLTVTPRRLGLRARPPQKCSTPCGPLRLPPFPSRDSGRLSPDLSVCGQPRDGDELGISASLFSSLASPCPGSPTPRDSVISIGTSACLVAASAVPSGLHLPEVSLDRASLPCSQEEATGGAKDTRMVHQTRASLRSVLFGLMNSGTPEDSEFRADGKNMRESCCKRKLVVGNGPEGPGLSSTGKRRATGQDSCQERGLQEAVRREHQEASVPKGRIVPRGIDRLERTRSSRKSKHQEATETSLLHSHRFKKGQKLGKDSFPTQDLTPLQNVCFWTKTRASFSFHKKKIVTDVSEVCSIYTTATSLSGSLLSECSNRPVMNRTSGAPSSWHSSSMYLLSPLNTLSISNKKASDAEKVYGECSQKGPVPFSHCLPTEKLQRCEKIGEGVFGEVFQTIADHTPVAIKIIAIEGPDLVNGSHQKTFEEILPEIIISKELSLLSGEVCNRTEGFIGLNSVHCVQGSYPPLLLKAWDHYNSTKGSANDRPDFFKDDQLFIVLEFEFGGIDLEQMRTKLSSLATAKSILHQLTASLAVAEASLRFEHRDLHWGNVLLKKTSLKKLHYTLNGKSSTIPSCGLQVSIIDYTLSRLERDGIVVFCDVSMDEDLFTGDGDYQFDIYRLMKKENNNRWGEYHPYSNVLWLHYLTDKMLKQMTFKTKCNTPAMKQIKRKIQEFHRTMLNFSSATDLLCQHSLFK
Assay: kinome profiling at 1 μM, haspin
Type: biochemical
Source text: We profiled three compounds from the series across the kinome (FIG. 11). […] To identify the structural drivers for CDK inhibition, we obtained X-ray crystal structures of 5 y and 6 g SU1336 and SU1349 with CDK-2 (FIG. 12A) to potentially identify possible routes towards introducing selectivity for IKKα over the CDK enzymes as well as IKKβ. […] All three derivatives form complexes with CDK2 with the pyrrolo[2,3 -b]pyridine H-bonding to GK+3 (Leu 83 ) and the aminoindazole projected towards the G-loop (FIG. 12A), forming H-bonds with Glu 51 and Lys 33 at the back of the pocket. The adoption of the 4 SU1253 -type orientation, rather than the flipped pose observed in IKKα, is probably facilitated by Tr-stacking between the aminoindazole and the GK residue, which in the CDKs is Phe, rather than Met. […] For 6 g SU1349, the hydrophobic pendant benzyloxy group points out into solvent, but can form face-to-edge Tr-Tr interactions with Phe 82 and His 84 from the hinge. Exchanging the hydrophobic pendant benzyloxy group for the morpholinoethyl-containing substituent in 5 y SU1336 removes any direct interaction with these hinge residues, preferring to sit in a more solvent-exposed position, as befits a basic side chain that will be protonated at physiological pH (FIG. 12B).

**Q.** For `Nc1n[nH]c2ccc(-c3ccnc4[nH]c(-c5cccc(OCc6ccccc6)c5)cc34)cc12` [5r SU1261, 5-(2-(3-(benzyloxy)phenyl)-1 H-pyrrolo[2,3-b]pyridin-4-yl)-1 H-indazol-3-amine], which inhibition at 1 µM is on record?
**A.** > 80%

— US20260315487A1, “IKK-ALPHA INHIBITORS” (Cancer Research Technology Limited, priority 2023, published 2026)
